Test [1] concerns EAE. Nature of the test: EAE induction and scoring (MOG35-55/CFA/PTX). Conditions: wild type mice, 2 mg/kg (1 mg/kg i.p. and 1 mg/kg s.c.) 1 day prior to EAE induction and daily for 30 days, vs DMSO alone. The class given is in vivo, mice. An excerpt:
Cd73^−/− mice have been previously described (Thompson et al., “Crucial Role for Ecto-5′-Nucleotidase (CD73) in Vascular Leakage During Hypoxia,” J. Exp. Med. 200:1395-1405 (2004), which is hereby incorporated by reference in its entirety) and have been backcrossed to C57BL/6 for 14 generations. Cd73^−/− mice have no overt susceptibility to infection and appear normal based on the size and cellular composition of their lymphoid organs and their T and B cell responses in in vivo and in vitro assays (Thompson et al., “Crucial Role for Ecto-5′-Nucleotidase (CD73) in Vascular Leakage During Hypoxia,” J. Exp. Med. 200:1395-1405 (2004), which is hereby incorporated by reference in its entirety). C57BL/6 and tcrα^−/− mice on the C57BL/6 background were purchased from The Jackson Laboratories. Mice were bred and housed under specific pathogen-free conditions at Cornell University or the University of Turku. For adenosine receptor blockade experiments, mice were given drinking water supplemented with 0.6 g/L of caffeine (Sigma) or 2 mg/kg SCH58261 (1 mg/kg s.c. and 1 mg/kg i.p.) in DMSO (45% vol. in PBS) or 45% DMSO alone starting 1 day before EAE induction and continuing throughout the experiment. All procedures performed on mice were approved by the relevant animal review committee.
EAE was induced by subjecting mice to the myelin oligodendrocyte glycoprotein (“MOG”) EAE-inducing regimen as described in Swanborg, “Experimental Autoimmune Encephalomyelitis in Rodents as a Model for Human Demyelinating Disease,” Clin. Immunol. Immunopathol. 77:4-13 (1995) and Bynoe et al., “Epicutaneous Immunization with Autoantigenic Peptides Induces T Suppressor Cells that Prevent Experimental Allergic Encephalomyelitis,” Immunity 19:317-328 (2003), which are hereby incorporated by reference in their entirety. […] Mice were scored daily for EAE based on disease symptom severity; 0=no disease, 0.5-1=weak/limp tail, 2=limp tail and partial hind limb paralysis, 3=total hind limb paralysis, 4=both hind limb and fore limb paralysis, 5=death. […]
As CD73 catalyzes the breakdown of AMP to adenosine and ARs are expressed in the CNS (Tsutsui et al., “A1 Adenosine Receptor Upregulation and Activation Attenuates Neuroinflammation and Demyelination in a Model of Multiple Sclerosis,” J. Neurosci. 24:1521-1529 (2004)); Rosi et al., The Influence of Brain Inflammation Upon Neuronal Adenosine A2B Receptors,” J. Neurochem. 86:220-227 (2003), which are hereby incorporated by reference in their entirety), it was next determined if AR signaling is important during EAE progression. […] Since CD73 is highly expressed on the choroid plexus (FIG. 6C), it was next determined if ARs are also expressed on the choroid plexus. […]

Test [2] relates to Bend.3 cells. Description: Albumin uptake assay. It counts as cell-based, mouse. Conditions: BECs, 1 μM, 30 minutes, vs media and vehicle. On the procedure: Bend.3 cells grown on collagen coated coverslips were incubated with albumin-alexafluor 594 (50 mg/ml) (Invitrogen) and either media alone, DMSO vehicle, NECA (1 μM), or Lexiscan (1 μM) for 30 minutes. Albumin uptake was visualized (albumin=red) utilizing the Zeiss Axio Imager M1 fluorescent microscope. Total albumin fluorescence was recorded using Zeiss Axio Vision software, and measured utilizing Image-J software.

For test [3], the system named is Bend.3 cells. Description: Transendothelial cell electrical resistance (TEER) assay. The class given is cell-based. Particulars: mouse BEC monolayers, 1 μM, vs vehicle or media alone. On the procedure: Bend.3 cells were grown in ATCC-formulated DMEM supplemented with 10% FBS on 24-well transwell inserts, 8 μm pore size (BD Falcon, Bedford, Mass.) until a monolayer was established. TEER was assessed using a Voltohmeter (EVOMX, World Precision Instruments, Sarasota, Fla.). Background resistance from un-seeded transwells was subtracted from recorded values to determine absolute TEER values. Change in absolute TEER from T0 for each individual transwell was expressed as percentage change and then averaged for each treatment group.

As to `Nc1nc2c(cnn2CCc2ccccc2)c2nc(-c3ccco3)nn12` [SCH58261, 2-(2-Furanyl)-7-(2-phenylethyl)-7H-pyrazolo[4,3-e][1,2,4]triazolo[1,5-c]pyrimidin-5-amine], in test [1], the EAE development result was “dramatically protected against EAE development”.

For `CCNC(=O)[C@H]1O[C@@H](n2cnc3c(N)ncnc32)[C@H](O)[C@@H]1O` [NECA, 5′-N-ethylcarboxamido adenosine], the “rate of fluorescently-labeled albumin uptake” value in test [2] is reported as “did not affect the rate of fluorescently-labeled albumin uptake”. In test [3], the TEER entry is “decreases in TEER”.
